Data on four compounds can be found in the NIST ThermoML archive (doi:10.1021/je3002078).

± gives the expanded uncertainty stated by the source.

The conditions of this data set: Liquid; for mass density: 101.33 kPa, Vibrating tube method; for vapor or sublimation pressure: Ebulliometric method (Recirculating still).

What is called mass density is the mass of a sample divided by its volume. The vapor or sublimation pressure is the equilibrium pressure above the liquid or solid. As to `OCCc1ccccc1` [2-phenylethanol], the mass density is, setting by setting: (303.15 K) 1012.65 ± 0.51 kg/m3; (308.15 K) 1008.68 ± 0.51 kg/m3. Further, the “vapor or sublimation pressure” value (489.79 K) amounted to 95.3 ± 7.1 kPa.
In the case of `OCCCl` [1-chloro-2-hydroxyethane], the mass density is 1192.48 ± 0.53 kg/m3 (303.15 K) and 1186.44 ± 0.53 kg/m3 (308.15 K). The “vapor or sublimation pressure” value (399.89 K) is recorded as 95.3 ± 7.1 kPa.
Regarding `NCCO` [2-aminoethan-1-ol], the mass density worked out at 1008.12 ± 0.51 kg/m3 (303.15 K) and 1005.08 ± 0.51 kg/m3 (308.15 K). Also, the “vapor or sublimation pressure” value (442.28 K) is reported as 95.3 ± 7.1 kPa.
Consider `CN1CCCC1=O` [N-methylpyrrolidone], for which the mass density (303.15 K) was 1023.45 ± 0.51 kg/m3 and the mass density (308.15 K) is given as 1013.34 ± 0.51 kg/m3. In addition, the “vapor or sublimation pressure” value (474.01 K) came out at 95.3 ± 7.1 kPa.
